Read-outs that look alike come from different tables or passages of the source.
Molecular target: T1, FITC-IFN-α2b (Homo sapiens, UniProt P01563)
T1 construct: single non-glycosylated polypeptide chain with a molecular weight of 19 kDa, comprising 165 amino acids; purchased Millipore Sigma-Aldrich SRP4595-100UG; host or cells: E. coli
Experiment: MST binding to FITC-IFN-α2b
Experimental: Typically, in the labeling process, one amine per protein is labeled, statistically distributing the position of the dye. Consequently, the risk of the label impairing the binding is minimal, given the typical number of lysine residues in proteins. […] The MST assay was performed as detailed in Section 3. […] For IFN- α 2b a concentration of 2.7 μ M was also prepared to compare it with previous results on MST-binding between FILs and IFN- α 2b fluorescently labeled with a different tag. In each run of MST, a maximum concentration of a ligand is selected and consecutively diluted in sixteen capillaries. […] The experimental conditions of the MST assay only allow the study of the aggregation phenomenon individually for the first CAC. For the MST runs with the concentration of the first capillary above the second CAC, the determined K d values for the runs that yield binding are influenced by several aggregates, making it impossible to attribute the K d value to a specific CAC. However, K d comprises the influence of the distinct aggregates of the FIL on binding affinity with both proteins, allowing a qualitative analysis of the impact of the different aggregates on binding affinity.
Microscale thermophoresis (MST) measurements of the dye-labeled protein were used to conduct binding investigations. […] MST tests were conducted in a monolith NT.115 (blue/red) in accordance with the NanoTemper Technologies methodology. Medium MST power and 20% LED power (nano-blue) were set as the instrument’s default settings. For every MST measurement, a PBS buffer was used. The concentration of FITC-BSA was fixed at 0.4 μ M and FITC-IFN- α 2b was tested under two different concentrations (of 0.4 and 2.7 μ M). The ligand was used to create a set of 16 1:1 dilutions, with the starting ligand concentrations ranging from 10 to 400 mM. The typical parameters for MST traces were used for recording: […], 30 s MST power on, and 5 s MST power off. The data from three independently conducted pipetted experiments were examined using NanoTemper Technologies’ MO.Affinity Analysis software, version 2.3.

T1 sequence (P01563 24-188): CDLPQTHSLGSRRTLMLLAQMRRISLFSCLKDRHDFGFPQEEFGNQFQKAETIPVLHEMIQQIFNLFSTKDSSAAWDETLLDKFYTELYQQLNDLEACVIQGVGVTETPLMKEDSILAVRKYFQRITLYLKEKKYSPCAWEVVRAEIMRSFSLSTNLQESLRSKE

`CCn1cc[n+](C)c1.O=S(=O)([O-])C(F)(F)C(F)(F)C(F)(F)C(F)(F)F` [1-ethyl-3-methylimidazolium perfluorobutane sulfonate] was tested, and the Kd (0.41 μM IFN-α2b, max. conc. first capillary below 1st CAC (monomer)) was “no binding detected”, the Kd (0.41 μM IFN-α2b, max. conc. first capillary in 2nd CAC range, 25 °C, read-out: Kd) was 0.71 ± 0.37 mM and the Kd (0.41 μM IFN-α2b, max. conc. first capillary in 4th CAC range, 25 °C, read-out: Kd) was 6.28 ± 1.09 mM. The Kd (2.7 μM IFN-α2b, max. conc. first capillary in 1st CAC range, 25 °C, read-out: Kd) was 9.1 ± 6.38 mM and the Kd (2.7 μM IFN-α2b, max. conc. first capillary in 3rd CAC range, 25 °C, read-out: Kd) was 29.9 ± 6.27 mM.

From publication PMC10931833, “Simultaneous Purification of Human Interferon Alpha-2b and Serum Albumin Using Bioprivileged Fluorinated Ionic Liquid-Based Aqueous Biphasic Systems” (International Journal of Molecular Sciences, 2024)
